Results: the supplement of paper PMC10307832

What was measured:
Assay in all cases: relative viability (nuclei count vs DMSO), 5 days (fraction); higher = more cells survive
DM3189 + Olaparib = compound: C1CN(CCN1)C2=CC=C(C=C2)C3=CN4C(=C(C=N4)C5=CC=NC6=CC=CC=C56)N=C3 [DM3189] + O=C(c1cc(Cc2n[nH]c(=O)c3ccccc23)ccc1F)N1CCN(C(=O)C2CC2)CC1 [Olaparib] (partner 8 µM)
Outline: (§1)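 Nuclei were stained with Hoechst during a one-step fixation (final 0.05% Triton X-100, 1% formaldehyde, 1 ug/ml Hoechst) carried out 5 days after dosing, then counted on 4× images. The cells, lung cancer lines in 1536-well plates, had been dosed by pin tool the day after seeding with one drug alone or a fixed anchor-drug dose plus five library-drug doses (not always all listed) in √10 steps. Relative viability is the nuclei count in treated wells divided by that in vehicle wells, and each value is the median of duplicate plates.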

DM3189 + Alpelisib = compound: C1CN(CCN1)C2=CC=C(C=C2)C3=CN4C(=C(C=N4)C5=CC=NC6=CC=CC=C56)N=C3 [DM3189] + Cc1nc(NC(=O)N2CCC[C@H]2C(N)=O)sc1-c1ccnc(C(C)(C)C(F)(F)F)c1 [Alpelisib] (partner 2 µM)
Outline: as §1

DM3189 + Crizotinib = compound: C1CN(CCN1)C2=CC=C(C=C2)C3=CN4C(=C(C=N4)C5=CC=NC6=CC=CC=C56)N=C3 [DM3189] + C[C@@H](Oc1cc(-c2cnn(C3CCNCC3)c2)cnc1N)c1c(Cl)ccc(F)c1Cl [Crizotinib] (partner 1 µM)
Outline: as §1

DM3189 + Dasatinib = compound: C1CN(CCN1)C2=CC=C(C=C2)C3=CN4C(=C(C=N4)C5=CC=NC6=CC=CC=C56)N=C3 [DM3189] + Cc1nc(Nc2ncc(C(=O)Nc3c(C)cccc3Cl)s2)cc(N2CCN(CCO)CC2)n1 [Dasatinib] (partner 0.075 µM)
Outline: as §1

DM3189 = compound: C1CN(CCN1)C2=CC=C(C=C2)C3=CN4C(=C(C=N4)C5=CC=NC6=CC=CC=C56)N=C3 [DM3189]
Outline: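 Lung cancer cell lines received five library-drug doses (not always all listed) spaced by √10, pinned on vehicle-anchored 1536-well plates after an overnight stay at 37 °C. Five days later, with no medium change, nuclei were Hoechst-stained, imaged at 4× and counted with MetaXpress. Viability is treated-well nuclei relative to vehicle-well nuclei, as a median across plates. Passing plates had control CV below 25% and at least one doubling.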

| Cell Line | relative viability (DM3189 + Olaparib; first compound 0.08 µM) | relative viability (DM3189 + Olaparib; first compound 0.253 µM) | relative viability (DM3189 + Olaparib; first compound 0.8 µM) | relative viability (DM3189 + Olaparib; first compound 2.53 µM) | relative viability (DM3189 + Alpelisib; first compound 0.08 µM) | relative viability (DM3189 + Alpelisib; first compound 0.253 µM) | relative viability (DM3189 + Alpelisib; first compound 0.8 µM) | relative viability (DM3189 + Alpelisib; first compound 2.53 µM) | relative viability (DM3189 + Crizotinib; first compound 0.08 µM) | relative viability (DM3189 + Crizotinib; first compound 0.253 µM) | relative viability (DM3189 + Crizotinib; first compound 0.8 µM) | relative viability (DM3189 + Crizotinib; first compound 2.53 µM) | relative viability (DM3189 + Dasatinib; first compound 0.08 µM) | relative viability (DM3189 + Dasatinib; first compound 0.253 µM) | relative viability (DM3189 + Dasatinib; first compound 0.8 µM) | relative viability (DM3189 + Dasatinib; first compound 2.53 µM) | relative viability (DM3189; 0.08 µM) | relative viability (DM3189; 0.253 µM) | relative viability (DM3189; 0.8 µM) | relative viability (DM3189; 2.53 µM) |
| --- | --- | --- | --- | --- | --- | --- | --- | --- | --- | --- | --- | --- | --- | --- | --- | --- | --- | --- | --- | --- |
| 201T | 0.822 | 0.882 | 0.859 | 0.765 | 1.05 | 1.02 | 1 | 1.05 | 1.06 | 1.03 | 1 | 1.07 | 0.589 | 0.543 | 0.385 | 0.557 | 0.981 | 0.981 | 0.843 | 1.04 |
| A549 | 0.286 | 0.332 | 0.236 | 0.29 | 0.892 | 0.806 | 0.812 | 0.956 | 0.86 | 0.763 | 0.755 | 0.705 |  |  |  |  | 1.06 | 1.06 | 0.993 | 1.08 |
| A-427 | 0.832 | 0.753 | 0.512 | 0.807 | 1.11 | 1.04 | 1.01 | 1.09 | 0.904 | 0.854 | 0.811 | 0.95 | 0.765 | 0.78 | 0.684 | 0.732 | 1.19 | 1 | 0.93 | 0.947 |
| ABC-1 | 1.04 | 0.594 | 0.676 | 0.718 | 0.864 | 1.07 | 1.02 | 0.925 | 1.07 | 0.991 | 0.991 | 0.668 | 0.607 | 0.559 | 0.448 | 0.423 | 1.12 | 0.847 | 0.752 | 0.829 |
| BEN | 1.13 | 1.12 | 0.852 | 1.08 | 0.917 | 1 | 1.03 | 0.934 | 0.881 | 0.865 | 0.944 | 0.987 | 0.314 | 0.295 | 0.319 | 0.33 | 0.929 | 0.925 | 0.967 | 0.981 |
| CAL-12T | 0.713 | 0.618 | 0.681 | 0.803 | 1.42 | 1.14 | 1.41 | 1.43 | 0.508 | 0.658 | 0.704 | 0.543 | 0.546 | 0.469 | 0.487 | 0.571 | 1.06 | 0.927 | 0.975 | 1.09 |
| COR-L23 | 0.439 | 0.264 | 0.245 | 0.303 | 0.749 | 0.634 | 0.645 | 0.636 | 0.633 | 0.455 | 0.679 | 0.583 | 0.543 | 0.525 | 0.458 | 0.525 | 1.06 | 0.95 | 0.758 | 0.95 |
| COR-L 105 | 0.855 | 0.772 | 0.545 | 0.812 | 1.17 | 1.16 | 1.01 | 1.26 | 0.864 | 0.685 | 0.603 | 0.538 | 0.427 | 0.449 | 0.348 | 0.327 | 1.22 | 0.95 | 0.853 | 0.808 |
